For one assay, the target named is T1, HDAC7 (Homo sapiens, UniProt Q8WUI4).
T1 sequence (Q8WUI4 1-952): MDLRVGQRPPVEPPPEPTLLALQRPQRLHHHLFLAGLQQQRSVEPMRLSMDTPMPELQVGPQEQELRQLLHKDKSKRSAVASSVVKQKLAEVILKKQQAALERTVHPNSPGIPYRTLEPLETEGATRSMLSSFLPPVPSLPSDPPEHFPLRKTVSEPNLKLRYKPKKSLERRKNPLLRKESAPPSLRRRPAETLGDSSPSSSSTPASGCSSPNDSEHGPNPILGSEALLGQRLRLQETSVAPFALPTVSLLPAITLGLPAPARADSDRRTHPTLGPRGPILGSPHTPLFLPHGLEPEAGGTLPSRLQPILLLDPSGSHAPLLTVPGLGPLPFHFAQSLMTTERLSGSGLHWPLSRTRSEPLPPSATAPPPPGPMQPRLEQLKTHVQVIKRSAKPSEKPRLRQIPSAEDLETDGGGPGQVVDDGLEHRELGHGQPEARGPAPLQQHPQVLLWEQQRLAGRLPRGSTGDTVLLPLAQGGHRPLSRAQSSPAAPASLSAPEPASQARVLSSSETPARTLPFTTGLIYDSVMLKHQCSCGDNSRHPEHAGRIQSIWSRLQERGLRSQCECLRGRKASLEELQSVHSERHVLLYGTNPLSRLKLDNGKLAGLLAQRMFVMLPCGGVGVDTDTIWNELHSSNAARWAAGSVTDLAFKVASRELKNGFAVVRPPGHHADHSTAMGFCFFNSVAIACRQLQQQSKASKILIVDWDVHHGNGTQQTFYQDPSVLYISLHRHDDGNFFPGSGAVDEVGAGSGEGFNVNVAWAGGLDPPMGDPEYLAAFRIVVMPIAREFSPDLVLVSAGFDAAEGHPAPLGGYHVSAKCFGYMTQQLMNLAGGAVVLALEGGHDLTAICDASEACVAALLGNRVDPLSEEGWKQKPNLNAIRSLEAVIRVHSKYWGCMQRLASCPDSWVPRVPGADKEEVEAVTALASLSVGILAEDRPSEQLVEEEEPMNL
The experiment in a line: HDAC biochemical activity measurement (fluorescent substrate deacetylation). Conditions: HDAC7; 37° C. 30 minutes.

Assay [1] relates to Hela (human cervical cancer cells). Description: MTT cancer cell growth inhibition. It counts as cell-based. Conditions: MTT. The procedure, abridged:
(§1)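 Using a 72 h MTT format, triplicate wells of 1500 cells received compound concentrations from 10^−5 to 10^−10 M. Formazan was read at 570 nm after DMSO dissolution, and GI50 was derived from viability.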

Assay [2] relates to SGC-7901 (human gastric cancer cells). Description: MTT cancer cell growth inhibition. The class given is cell-based. Conditions: MTT, 72 hours incubation, SGC-7901 cells, read-out: GI50 SGC-7901. The procedure, abridged: as §1
Assay [3] deals with KBM5-T315I (human chronic myelogenous leukemia). Description: MTT cancer cell growth inhibition. It counts as cell-based. Conditions: MTT, 72 hours incubation, KBM5-T315I cells, read-out: GI50 KBM5-T315I. The procedure, abridged: as §1
For assay [4], the system named is HT1080 (human fibrosarcoma cells). Description: MTT cancer cell growth inhibition. The class given is cell-based. Conditions: MTT. The procedure, abridged:
as §1

Assay [5] relates to N-87 (human gastric cancer cells). Description: MTT cancer cell growth inhibition. The class given is cell-based. As to conditions: MTT, 72 hours incubation, N-87 cells, read-out: GI50 N-87. The procedure, abridged:
as §1

In assay [6] the test system is BGC-823 (human gastric cancer cells). Description: MTT cancer cell growth inhibition. The class given is cell-based. Conditions: MTT. The procedure, abridged:
as §1

Assay [7] relates to Huh-7 (human hepatoma cells). The experiment in a line: MTT cancer cell growth inhibition. Conditions: MTT, 72 hours incubation, Huh-7 cells, read-out: GI50 Huh-7. It counts as cell-based. The procedure, abridged: as §1
Assay [8] has as its system MDA-MB-231 (breast cancer cells). The experiment in a line: MTT cancer cell growth inhibition. It counts as cell-based. The procedure, abridged: as §1
In assay [9] the test system is KBM-5 (human chronic myelogenous leukemia). Description: MTT cancer cell growth inhibition. The class given is cell-based. As to conditions: MTT, 72 hours incubation, KBM-5 cells, read-out: GI50 KBM-5. The procedure, abridged: as §1
For another assay, the target named is T2, HDAC8 (Homo sapiens, UniProt Q9BY41).
T2 sequence (Q9BY41 1-377): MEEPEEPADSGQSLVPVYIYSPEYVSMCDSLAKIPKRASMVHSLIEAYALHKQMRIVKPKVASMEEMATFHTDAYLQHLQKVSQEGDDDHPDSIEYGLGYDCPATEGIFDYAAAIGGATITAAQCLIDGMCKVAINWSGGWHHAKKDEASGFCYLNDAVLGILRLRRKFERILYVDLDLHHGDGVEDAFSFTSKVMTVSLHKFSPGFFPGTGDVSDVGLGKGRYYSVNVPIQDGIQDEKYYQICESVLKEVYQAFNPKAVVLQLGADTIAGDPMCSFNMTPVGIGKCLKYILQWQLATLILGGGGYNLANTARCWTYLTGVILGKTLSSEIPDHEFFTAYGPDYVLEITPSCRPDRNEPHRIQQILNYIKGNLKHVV
Description: HDAC biochemical activity measurement (fluorescent substrate deacetylation). As to conditions: 37° C. 30 minutes.

The next assay concerns the target HDAC1 (Homo sapiens, UniProt Q13547). Described as above.
For a further assay, the target named is HDAC3 (Homo sapiens, UniProt O15379). Described as above.
Where [10] appears, read: Homo sapiens, HeLa, 72 h, Hela cells, 72 hours incubation, read-out: GI50 Hela.
The mark [11] stands for this setting: Homo sapiens, HT-1080, 72 h, HT1080 cells, 72 hours incubation, read-out: GI50 HT1.
The mark [12] stands for this setting: Homo sapiens, BGC-823, 72 h, BGC-823 cells, 72 hours incubation, read-out: GI50 BG.
Where [13] appears, read: Homo sapiens, MDA-MB-231, 72 h, read-out: GI50 MDA-MB-231, MTT, 72 hours incubation, MDA-MB-231 cells.
Where [14] appears, read: HDAC1, 37° C. 30 minutes, read-out: IC50 HDAC1.
The mark [15] stands for this setting: read-out: IC50 HDAC3, HDAC3, 37° C. 30 minutes.

The GI50 is the concentration at which growth is held to half of that of the control. For orientation: IC50 means the midpoint of a concentration-inhibition curve.

Structures are written as SMILES. Like-named read-outs stand apart in the source and are kept apart here. Some results are limits rather than exact numbers.
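For IC50 HDAC1 in this document: fluorogenic acetyl-lysine substrate (20 µM) deacetylated by HDAC1, then developer releases fluorophore read at 360 nm excitation and 460 nm emission, inhibitor incubated 30 min at 37 °C.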
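For IC50 HDAC1, D (non-substituent) in this document: fluorogenic acetyl-lysine substrate (20 µM) deacetylated by HDAC1, then developer releases fluorophore read at 360 nm excitation and 460 nm emission, inhibitor incubated 30 min at 37 °C.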
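For IC50 HDAC1, a (compounds of the present invention) in this document: fluorogenic acetyl-lysine substrate (20 µM) deacetylated by HDAC1, then developer releases fluorophore read at 360 nm excitation and 460 nm emission, inhibitor incubated 30 min at 37 °C.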
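For IC50 HDAC7 in this document: fluorogenic deacetylation assay using acetyl-lysine substrate at 20 µM, enzyme and compound incubated 30 min at 37 °C, then developer added, fluorescence read at 360/460 nm.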

HDAC1, sequence (Q13547 whole entry, species assumed): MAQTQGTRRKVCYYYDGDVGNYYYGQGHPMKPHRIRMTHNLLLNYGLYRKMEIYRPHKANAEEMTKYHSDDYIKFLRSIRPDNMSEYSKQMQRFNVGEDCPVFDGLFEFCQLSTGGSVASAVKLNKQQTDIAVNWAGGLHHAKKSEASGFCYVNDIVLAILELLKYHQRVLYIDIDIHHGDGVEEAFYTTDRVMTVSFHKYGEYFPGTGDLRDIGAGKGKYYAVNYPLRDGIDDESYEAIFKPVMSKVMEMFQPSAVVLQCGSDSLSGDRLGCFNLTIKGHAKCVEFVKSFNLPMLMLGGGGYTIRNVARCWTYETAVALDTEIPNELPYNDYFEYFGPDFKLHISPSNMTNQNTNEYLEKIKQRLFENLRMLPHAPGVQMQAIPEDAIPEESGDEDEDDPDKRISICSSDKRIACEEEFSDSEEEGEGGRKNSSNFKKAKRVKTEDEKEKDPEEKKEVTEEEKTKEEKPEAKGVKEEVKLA
HDAC3, sequence (O15379 whole entry, species assumed): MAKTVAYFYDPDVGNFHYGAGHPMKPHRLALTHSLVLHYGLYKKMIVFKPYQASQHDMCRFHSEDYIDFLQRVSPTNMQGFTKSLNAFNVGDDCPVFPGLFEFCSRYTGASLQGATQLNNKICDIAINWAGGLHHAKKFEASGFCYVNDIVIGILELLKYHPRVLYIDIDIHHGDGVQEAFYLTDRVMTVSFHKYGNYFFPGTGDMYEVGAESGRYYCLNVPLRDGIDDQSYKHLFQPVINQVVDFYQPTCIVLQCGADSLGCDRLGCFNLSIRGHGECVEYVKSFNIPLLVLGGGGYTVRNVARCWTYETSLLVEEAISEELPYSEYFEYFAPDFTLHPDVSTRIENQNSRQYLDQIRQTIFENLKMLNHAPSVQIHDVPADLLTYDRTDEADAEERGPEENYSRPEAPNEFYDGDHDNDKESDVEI
HDAC3, sequence (Q9Y618 395-489 partner limits assumed, species assumed): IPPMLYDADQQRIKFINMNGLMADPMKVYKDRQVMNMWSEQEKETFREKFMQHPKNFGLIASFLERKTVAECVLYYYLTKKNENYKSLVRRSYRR
Description for HDAC1: (§2) The chemical activity of the compound is determined according to the degree of deacetylation inhibition of the HDAC enzyme. This experiment measured the degree of deacetylation related to tumor proliferation and metastasis of HDAC1, HDAC2, HDAC3, HDAC8, HDAC11 five subtypes HDAC enzymes. After the substrate containing an acetylated lysine side chain and HDAC enzyme are labeled with a fluorescent label, the fluorescent substrate is de acetyl. The fluorescent labeled substrate is cleaved by the enzyme, and the fluorescent substance is released, which generates 460 nm emission light under the excitation of 360 nm light.
(§3) HDAC substrate was diluted with reaction buffer to 200M (reaction concentration of 20M), the HDAC enzyme was diluted to the appropriate concentration, then added different concentrations of the test compounds and acted at 37° C. 30 minutes, and then added the same volume of 2-times concentration substrate developing solution (developer), incubated at room temperature for 15 minutes.
Description for HDAC3: as §2, §3
Description for HDAC8: as §2, §3

Regarding `C/C=C1\NC(=O)c2cccc(n2)CNC(=O)C[C@@H](/C=C/CCSC(=O)CCCCCCC)OC(=O)CNC1=O` [Compound 235], the “IC50 HDAC7” value at HDAC7 is “no activity”. Further, the GI50 came to 40 nM in assay [1] (setting [10]); 47 nM in assay [1] (Homo sapiens, HeLa, 72 h, 72 hours, present invention, read-out: GI50 Hela, a); 42 nM in assay [2] (Homo sapiens, SGC-7901, 72 h); 92 nM in [3] (Homo sapiens, 72 h); 20 nM in [4] (setting [11]); 24 nM in [4] (Homo sapiens, HT-1080, 72 h, 72 hours, present invention, read-out: GI50 HT1080, a). For the same molecule, the GI50 in assay [5] (Homo sapiens, 72 h) is 63 nM; in assay [6] (setting [12]) it was 40 nM; in [6] (Homo sapiens, BGC-823, 72 h, 72 hours, present invention, read-out: GI50 BGC823, a), 43 nM; in assay [7] (Homo sapiens, Huh-7, 72 h), 38 nM; in [8] (setting [13]), 45 nM; in assay [9] (Homo sapiens, KBM5, 72 h) it was 27 nM. In addition, the IC50 was 47 nM on HDAC8; 8 nM at HDAC1 (setting [14]); below 10 nM at HDAC1 (Table 2, read-out: IC50 HDAC1, a (compounds of the present invention)); 35 nM at HDAC3 (setting [15]).
Regarding `C/C=C1\NC(=O)c2nc(ccc2SC)CNC(=O)C[C@@H](/C=C/CCSC=O)OC(=O)[C@H](C(C)C)NC1=O` [Compound 168], on HDAC7, the “IC50 HDAC7” value was “no activity”. The concentration for 50% growth inhibition (GI50) stood at 50 nM in assay [1] (setting [10]); 34 nM in assay [2] (Homo sapiens, SGC-7901, 72 h); 36 nM in assay [3] (Homo sapiens, 72 h); 130 nM in assay [4] (setting [11]); 94 nM in assay [5] (Homo sapiens, 72 h); 10 nM in [6] (setting [12]). The concentration for 50% growth inhibition (GI50) in assay [7] (Homo sapiens, Huh-7, 72 h) came to 56 nM; in assay [8] (setting [13]) it was 12 nM; in [9] (Homo sapiens, KBM5, 72 h) it was 22 nM. Moreover, the 50% inhibitory concentration (IC50) against HDAC8 turned out to be 13 nM; at HDAC1 (setting [14]) it was 91 nM; on HDAC3, 34 nM.
In the case of `C/C=C1\NC(=O)c2cc(SC)cc(n2)CNC(=O)C[C@@H](/C=C/CCSC(C)=O)OC(=O)[C@H](C(C)C)NC1=O` [Compound 224], the “IC50 HDAC7” value against HDAC7 was “no activity”. The GI50 was 60 nM in assay [1] (Hela cells, 72 hours incubation, read-out: GI50 Hela); 93 nM in [2]; 63 nM in assay [3]; 90 nM in [4] (HT1080 cells, 72 hours incubation, read-out: GI50 HT1); 17 nM in assay [5]; 30 nM in assay [6] (BGC-823 cells, 72 hours incubation, read-out: GI50 BG). Also, the GI50 in [7] stood at 36 nM; in assay [8] (read-out: GI50 MDA-MB-231, MTT, 72 hours incubation, MDA-MB-231 cells), 62 nM; in [9], 16 nM. For the same molecule, the IC50 at HDAC8 was found to be 752 nM; on HDAC1 (setting [14]) it was 184 nM; at HDAC3 (setting [15]), 563 nM.
For `C/C=C1\NC(=O)c2cccc(n2)CNC(=O)C[C@@H](/C=C/CCSC(=O)CC)OC(=O)[C@H](C(C)C)NC1=O` [Compound 6], at HDAC7, the “IC50 HDAC7” value is on record as “no activity”. Moreover, the GI50 is 60 nM in assay [1] (Homo sapiens, HeLa, 72 h, 72 hours incubation, read-out: GI50 Hela); 51 nM in [2] (Homo sapiens, SGC-7901, 72 h); 41 nM in assay [3] (Homo sapiens, 72 h); 80 nM in assay [4] (Homo sapiens, HT-1080, 72 h, 72 hours incubation, read-out: GI50 HT1); 28 nM in assay [5] (Homo sapiens, 72 h); 70 nM in [6] (Homo sapiens, BGC-823, 72 h, 72 hours incubation, read-out: GI50 BG). The GI50 in assay [7] (Homo sapiens, Huh-7, 72 h) was found to be 58 nM; in assay [8] (setting [13]) it was 84 nM; in assay [9] (Homo sapiens, KBM5, 72 h), 61 nM. In addition, the IC50 came to 63 nM against HDAC8; 75 nM on HDAC1 (setting [14]); 75 nM on HDAC1 (Table 3, read-out: IC50 HDAC1, D (non-substituent)); 61 nM at HDAC3 (setting [15]).
For the molecule `C/C=C1\NC(=O)c2nc(ccc2SCCC)CNC(=O)C[C@@H](/C=C/CCSC(=O)CCCCCCC)OC(=O)[C@H](CC)NC1=O` [Compound 174], at HDAC7, the “IC50 HDAC7” value is listed as “no activity”. Also, the GI50 was 20 nM in assay [1] (setting [10]); 26 nM in [2] (Homo sapiens, SGC-7901, 72 h); 96 nM in [3] (Homo sapiens, 72 h); 10 nM in assay [4] (setting [11]); 31 nM in assay [5] (Homo sapiens, 72 h); 30 nM in assay [6] (setting [12]). Further, the GI50 in assay [7] (Homo sapiens, Huh-7, 72 h) is 11 nM; in assay [8] (setting [13]), 16 nM; in assay [9] (Homo sapiens, KBM5, 72 h), 15 nM. The IC50 stood at 21 nM on HDAC8, 84 nM at HDAC1 (setting [14]) and 26 nM against HDAC3.

These data come from patent US10065990B2, “Cyclic peptide compound, and preparation method, pharmaceutical composition and use thereof” (HANGZHOU GUANYU BIO-MEDICAL CO., LTD, priority 2013, dated 2018).
